Reference: the Kinase Knowledgebase extract (Sharma et al. 2016)

Molecular target: PIK3CB;PIK3CG;PIK3CD;PIK3CA (human) (UniProt P48736)
Assay: Enzyme Assay

IC50 [nM] | SMILES
2740 | O=C(c1nc(-c2ccccc2)n2c1CS(=O)(=O)c1ccccc1-2)N1CCOCC1
690 | Cc1ccc(-n2nc(C(=O)N3CCOCC3)c3c2-c2ccccc2S(=O)(=O)C3)cc1
2690 | Cn1cc(-n2nc(C(=O)N3CCOCC3)c3c2-c2ccsc2S(=O)(=O)C3)ccc1=O
445 | O=C(c1nn(-c2cccc(OCCn3cccn3)c2)c2c1CS(=O)(=O)c1ccccc1-2)N1CCOCC1
16 | O=C(c1nn([C@H]2CCCN(CCN3CCOCC3)C2)c2c1CS(=O)(=O)c1c(F)cccc1-2)N1CCOCC1
73 | O=C(c1cccc(-n2nc(C(=O)N3CCOCC3)c3c2-c2ccccc2S(=O)(=O)C3)c1)N1CCOCC1
1090 | Cn1nc(C(=O)N2CCOCC2)c2c1-c1cccc(Br)c1S(=O)(=O)C2
1830 | O=C(c1nn(-c2ccccc2)c2c1CS(=O)(=O)c1ccc([N+](=O)[O-])cc1-2)N1CCOCC1
302 | O=C(c1nn(C2CCCCC2)c2c1CS(=O)(=O)c1sccc1-2)N1CCOCC1
560 | O=C(c1nn(-c2cccc(CN3CCC(F)(F)CC3)c2)c2c1CS(=O)(=O)c1ccccc1-2)N1CCOCC1
440 | O=C(c1nn(-c2cccc(Cl)c2)c2c1CS(=O)(=O)c1ccccc1-2)N1CCOCC1
1730 | COc1cccc2c1S(=O)(=O)Cc1c(C(=O)N3CCOCC3)nn(C)c1-2

More lines, now with the values behind:

SMILES | IC50 [nM]
COCCn1nc(C(=O)N2CCOCC2)c2c1-c1ccccc1S(=O)(=O)C2 | 1290
O=C(c1nn(C2CCN(CCN3CC[C@@H](F)C3)C2)c2c1CS(=O)(=O)c1ccccc1-2)N1CCOCC1 (stereo not given in full) | 120
O=C(c1nn(-c2ccccc2)c2c1CS(=O)(=O)c1c(-c3ccccc3)cccc1-2)N1CCOCC1 | 17900
O=C(c1nn(-c2ccc(CNC3CCOCC3)cc2)c2c1CS(=O)(=O)c1ccccc1-2)N1CCOCC1 | 107
COCCN(CCOC)CCN1CCC[C@H](n2nc(C(=O)N3CCOCC3)c3c2-c2ccccc2S(=O)(=O)C3)C1 | 113
O=C(CC1CCOCC1)N1CCC[C@H](n2nc(C(=O)N3CCOCC3)c3c2-c2ccccc2S(=O)(=O)C3)C1 | 345
COc1ccc2c(c1)S(=O)(=O)Cc1c(C(=O)N3CCOCC3)nn([C@H]3CCCN(C4CCCOC4)C3)c1-2 (stereo not given in full) | 24
O=C(c1n[nH]c2c1CS(=O)(=O)c1ccccc1-2)N1CCOCC1 | 2880
O=C(c1nn(C2CCCCC2)c2c1CS(=O)(=O)c1cc(Br)ccc1-2)N1CCOCC1 | 691
O=C(c1nn(Cc2nc3ccccc3s2)c2c1CS(=O)(=O)c1ccccc1-2)N1CCOCC1 | 1490
CN(C)CCN1CCCC(n2nc(C(=O)N3CCOCC3)c3c2-c2ccccc2S(=O)(=O)C3)C1 (stereo not given) | 72
O=C(CCN1CCC[C@H](n2nc(C(=O)N3CCOCC3)c3c2-c2ccccc2S(=O)(=O)C3)C1)N1CC(F)(F)C1 | 39
COc1ccc2c(c1)S(=O)(=O)Cc1c(C(=O)N3CCOCC3)nn([C@H]3CCCN(CCN4CCOCC4)C3)c1-2 | 24
COC(=O)c1ccc(Cn2nc(C(=O)N3CCOCC3)c3c2-c2ccccc2S(=O)(=O)C3)o1 | 431
COc1ccc(-n2nc(C(=O)N3CCOCC3)c3c2-c2ccccc2S(=O)(=O)C3)cc1 | 749
O=C(c1nn(C2CN3CCC2CC3)c2c1CS(=O)(=O)c1ccccc1-2)N1CCOCC1 (stereo not given) | 10200
O=C(c1nn(C2CCCN(CCN3CC(F)(F)C3)C2)c2c1CS(=O)(=O)c1ccccc1-2)N1CCOCC1 (stereo not given) | 36
CCc1nc(-c2cccc(-n3nc(C(=O)N4CCOCC4)c4c3-c3ccccc3S(=O)(=O)C4)c2)no1 | 2590
O=C(c1nn(-c2ccc3c(c2)OCCO3)c2c1CS(=O)(=O)c1ccccc1-2)N1CCOCC1 | 670
Nc1ncc(-c2cccc(-n3nc(C(=O)N4CCOCC4)c4c3-c3ccccc3S(=O)(=O)C4)c2)cn1 | 454
CC1COCCN1Cc1ccc(-n2nc(C(=O)N3CCOCC3)c3c2-c2ccccc2S(=O)(=O)C3)cc1 (stereo not given) | 180
Cc1nnc(-c2cccc(-n3nc(C(=O)N4CCOCC4)c4c3-c3ccccc3S(=O)(=O)C4)c2)o1 | 1200
CC(C)(c1ccc(-n2nc(C(=O)N3CCOCC3)c3c2-c2ccccc2S(=O)(=O)C3)cc1)N1CCOCC1 | 584
